Our source for the AC50 values is patent US20230365592A1 (Agios Pharmaceuticals, Inc., priority 2022, published 2023).

The experiment concerns the target T1, human PAH with the R408W mutation (Homo sapiens, UniProt P00439, R408W).
T1 construct: expressed in transfected cells
T1 sequence (P00439 1-452 R408W): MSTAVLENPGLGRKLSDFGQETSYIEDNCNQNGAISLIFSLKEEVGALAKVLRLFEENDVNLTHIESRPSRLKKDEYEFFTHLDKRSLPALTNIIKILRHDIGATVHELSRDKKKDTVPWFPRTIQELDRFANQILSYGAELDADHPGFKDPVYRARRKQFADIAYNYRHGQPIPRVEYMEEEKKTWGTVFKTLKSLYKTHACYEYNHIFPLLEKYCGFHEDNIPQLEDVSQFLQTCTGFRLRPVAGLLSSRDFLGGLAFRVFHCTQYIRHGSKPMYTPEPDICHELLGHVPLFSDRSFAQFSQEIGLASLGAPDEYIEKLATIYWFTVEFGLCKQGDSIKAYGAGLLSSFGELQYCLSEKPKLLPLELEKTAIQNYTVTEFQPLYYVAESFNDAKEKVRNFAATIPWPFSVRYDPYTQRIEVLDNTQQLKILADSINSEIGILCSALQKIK
The experiment in a line: Cell Based Phenylalanine Flux Assay.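 Further: after compound treatment, cells received sepiapterin plus isotope-labelled Phenylalanine for 4 hours, then labelled Tyrosine in the medium was quantified, 10-point 2-fold dilution series run in duplicate.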 The conditions noted are these: A375 cells expressing human PAH R408W; 24 hrs compound incubation; 13C-Tyrosine by LC-MS; average where tested multiple times; read-out: AC50.

SMILES strings stand for the structures.

What is called AC50 is the concentration at which the activity in the assay is half-maximal. In the case of `Cc1nnc(N2CCc3[nH]cnc3[C@H]2c2cc3c(C)cccn3n2)o1` [Example 2443, (S)-2-methyl-5-(4-(4-methylpyrazolo[1,5-a]pyridin-2-yl)-6,7-dihydro-1H-imidazo[4,5-c]pyridin-5(4H)-yl)-1,3,4-oxadiazole], the AC50 was in the range of 1 to 5 µM. With `Cn1cc(-c2nnc(C(=O)N3CCc4[nH]cnc4[C@H]3c3cc4c(OC(F)F)cccn4n3)o2)cn1` [Example 2445, (S)-(4-(4-(difluoromethoxy)pyrazolo[1,5-a]pyridin-2-yl)-6,7-dihydro-1H-imidazo[4,5-c]pyridin-5(4H)-yl)(5-(1-methyl-1H-pyrazol-4-yl)-1,3,4-oxadiazol-2-yl)methanone], the half-maximal activity concentration (AC50) fell in the range of 1 to 5 µM.

As to `COc1cccn2nc([C@@H]3c4nc[nH]c4CCN3C(=O)c3nnc(-c4cnn(C(F)F)c4)o3)cc12` [Example 2446, (S)-(5-(1-(difluoromethyl)-1H-pyrazol-4-yl)-1,3,4-oxadiazol-2-yl)(4-(4-methoxypyrazolo[1,5-a]pyridin-2-yl)-6,7-dihydro-1H-imidazo[4,5-c]pyridin-5(4H)-yl)methanone], the AC50 was in the range of 1 to 5 µM. For the molecule `COc1cccn2nc([C@H]3c4nc[nH]c4CCN3C(=O)c3nnc(-c4cnn(C(F)F)c4)o3)cc12` [Example 2447, (R)-(5-(1-(difluoromethyl)-1H-pyrazol-4-yl)-1,3,4-oxadiazol-2-yl)(4-(4-methoxypyrazolo[1,5-a]pyridin-2-yl)-6,7-dihydro-1H-imidazo[4,5-c]pyridin-5(4H)-yl)methanone], the half-maximal activity concentration (AC50) is > 5 µM. Regarding `O=C(c1nnc(-c2cnccn2)o1)N1CCc2[nH]cnc2[C@H]1c1cc2c(OC(F)F)cccn2n1` [Example 2448, (S)-(4-(4-(difluoromethoxy)pyrazolo[1,5-a]pyridin-2-yl)-6,7-dihydro-1H-imidazo[4,5-c]pyridin-5(4H)-yl)(5-(pyrazin-2-yl)-1,3,4-oxadiazol-2-yl)methanone], the concentration at half-maximal activity (AC50) fell in the range of 1 to 5 µM. Regarding `O=C(c1nnc(-c2cnccn2)o1)N1CCc2[nH]cnc2[C@@H]1c1cc2c(OC(F)F)cccn2n1` [Example 2449, (R)-(4-(4-(difluoromethoxy)pyrazolo[1,5-a]pyridin-2-yl)-6,7-dihydro-1H-imidazo[4,5-c]pyridin-5(4H)-yl)(5-(pyrazin-2-yl)-1,3,4-oxadiazol-2-yl)methanone], the AC50 is > 5 µM. `COc1ccc2c(C(=O)N3CCc4[nH]cnc4[C@H]3c3cc4c(C)cccn4n3)cnn2c1` [Example 2450, (S)-(6-methoxypyrazolo[1,5-a]pyridin-3-yl)(4-(4-methylpyrazolo[1,5-a]pyridin-2-yl)-6,7-dihydro-1H-imidazo[4,5-c]pyridin-5(4H)-yl)methanone]: the half-maximal activity concentration (AC50) lay in the range of 1 to 5 µM. Take `COc1ccc2c(C(=O)N3CCc4[nH]cnc4[C@@H]3c3cc4c(C)cccn4n3)cnn2c1` [Example 2451, (R)-(6-methoxypyrazolo[1,5-a]pyridin-3-yl)(4-(4-methylpyrazolo[1,5-a]pyridin-2-yl)-6,7-dihydro-1H-imidazo[4,5-c]pyridin-5(4H)-yl)methanone]: the half-maximal activity concentration (AC50) was > 5 µM. `O=C(c1cnn2cc(-c3ccccn3)ccc12)N1CCc2[nH]cnc2[C@H]1c1cc2cccc(C(F)(F)F)n2n1` [Example 2452, (S)-(6-(pyridin-2-yl)pyrazolo[1,5-a]pyridin-3-yl)(4-(7-(trifluoromethyl)pyrazolo[1,5-a]pyridin-2-yl)-6,7-dihydro-1H-imidazo[4,5-c]pyridin-5(4H)-yl)methanone]: the AC50 lay within 1 to 5 µM.

Consider `Clc1cccc2cc([C@@H]3c4nc[nH]c4CCN3c3ncccn3)nn12` [Example 2454, (S)-4-(7-chloropyrazolo[1,5-a]pyridin-2-yl)-5-(pyrimidin-2-yl)-4,5,6,7-tetrahydro-1H-imidazo[4,5-c]pyridine], for which the AC50 lay within 1 to 5 µM. Consider `Clc1cccc2cc([C@H]3c4nc[nH]c4CCN3c3ncccn3)nn12` [Example 2455, (R)-4-(7-chloropyrazolo[1,5-a]pyridin-2-yl)-5-(pyrimidin-2-yl)-4,5,6,7-tetrahydro-1H-imidazo[4,5-c]pyridine], for which the half-maximal activity concentration (AC50) lay within 1 to 5 µM. The figure for `Cc1nnc(N2CCc3[nH]cnc3[C@H]2c2cc3c(Cl)cccn3n2)o1` [Example 2456, (S)-2-(4-(4-chloropyrazolo[1,5-a]pyridin-2-yl)-6,7-dihydro-1H-imidazo[4,5-c]pyridin-5(4H)-yl)-5-methyl-1,3,4-oxadiazole] is 1 to 5 µM; for `O=C(c1nnc(-c2cnn(C(F)(F)F)c2)o1)N1CCc2[nH]cnc2[C@H]1c1cc2c(OC(F)F)cccn2n1` [Example 2458, (S)-(4-(4-(difluoromethoxy)pyrazolo[1,5-a]pyridin-2-yl)-6,7-dihydro-1H-imidazo[4,5-c]pyridin-5(4H)-yl)(5-(1-(trifluoromethyl)-1H-pyrazol-4-yl)-1,3,4-oxadiazol-2-yl)methanone] it is 1 to 5 µM. On to `FC(F)c1nnc(N2CCc3[nH]cnc3[C@H]2c2cc3ccccn3n2)o1` [Example 2461, (S)-2-(difluoromethyl)-5-(4-(pyrazolo[1,5-a]pyridin-2-yl)-6,7-dihydro-1H-imidazo[4,5-c]pyridin-5(4H)-yl)-1,3,4-oxadiazole], for which the AC50 fell in the range of 1 to 5 µM. The figure for `O=C(c1cnn2cc(C3CC3)ccc12)N1CCc2[nH]cnc2[C@H]1c1cc2cccc(C(F)F)n2n1` [Example 2462, (S)-(6-cyclopropylpyrazolo[1,5-a]pyridin-3-yl)(4-(7-(difluoromethyl)pyrazolo[1,5-a]pyridin-2-yl)-6,7-dihydro-1H-imidazo[4,5-c]pyridin-5(4H)-yl)methanone] is 1 to 5 µM. Turning to `COc1ccc2c(C(=O)N3CCc4[nH]cnc4[C@H]3c3cc4cccc(Cl)n4n3)cnn2c1` [Example 2464, (S)-(4-(7-chloropyrazolo[1,5-a]pyridin-2-yl)-6,7-dihydro-1H-imidazo[4,5-c]pyridin-5(4H)-yl)(6-methoxypyrazolo[1,5-a]pyridin-3-yl)methanone], the AC50 lay in the range of 1 to 5 µM. Consider `COc1ccc2c(C(=O)N3CCc4[nH]cnc4[C@@H]3c3cc4cccc(Cl)n4n3)cnn2c1` [Example 2465, (R)-(4-(7-chloropyrazolo[1,5-a]pyridin-2-yl)-6,7-dihydro-1H-imidazo[4,5-c]pyridin-5(4H)-yl)(6-methoxypyrazolo[1,5-a]pyridin-3-yl)methanone], for which the AC50 was > 5 µM.

Turning to `Cc1nnc(N2CCc3[nH]cnc3[C@H]2c2cc3c(C(F)F)cccn3n2)o1` [Example 2467, (S)-2-(4-(4-(difluoromethyl)pyrazolo[1,5-a]pyridin-2-yl)-6,7-dihydro-1H-imidazo[4,5-c]pyridin-5(4H)-yl)-5-methyl-1,3,4-oxadiazole], the concentration at half-maximal activity (AC50) is 1 to 5 µM. For `O=C(c1nnc(-c2ncccn2)o1)N1CCc2[nH]cnc2[C@H]1c1cc2c(OC(F)(F)F)cccn2n1` [Example 2469, (S)-(5-(pyrimidin-2-yl)-1,3,4-oxadiazol-2-yl)(4-(4-(trifluoromethoxy)pyrazolo[1,5-a]pyridin-2-yl)-6,7-dihydro-1H-imidazo[4,5-c]pyridin-5(4H)-yl)methanone], the concentration at half-maximal activity (AC50) lay within 1 to 5 µM. For `COc1cccn2nc([C@@H]3c4nc[nH]c4CCN3C(=O)c3cnn4cc(C)ccc34)cc12` [Example 2470, (S)-(4-(4-methoxypyrazolo[1,5-a]pyridin-2-yl)-6,7-dihydro-1H-imidazo[4,5-c]pyridin-5(4H)-yl)(6-methylpyrazolo[1,5-a]pyridin-3-yl)methanone], the concentration at half-maximal activity (AC50) fell in the range of 1 to 5 µM. For the molecule `COc1cccn2nc([C@H]3c4nc[nH]c4CCN3C(=O)c3cnn4cc(C)ccc34)cc12` [Example 2471, (R)-(4-(4-methoxypyrazolo[1,5-a]pyridin-2-yl)-6,7-dihydro-1H-imidazo[4,5-c]pyridin-5(4H)-yl)(6-methylpyrazolo[1,5-a]pyridin-3-yl)methanone], the AC50 was > 5 µM. Under `CN(C)c1ccc2c(C(=O)N3CCc4[nH]cnc4[C@H]3c3cc4cccc(C(F)(F)F)n4n3)cnn2c1` [Example 2472, (S)-(6-(dimethylamino)pyrazolo[1,5-a]pyridin-3-yl)(4-(7-(trifluoromethyl)pyrazolo[1,5-a]pyridin-2-yl)-6,7-dihydro-1H-imidazo[4,5-c]pyridin-5(4H)-yl)methanone] stands 1 to 5 µM; under `CN(C)c1ccc2c(C(=O)N3CCc4[nH]cnc4[C@H]3c3cc4cccc(Cl)n4n3)cnn2c1` [Example 2474, (S)-(4-(7-chloropyrazolo[1,5-a]pyridin-2-yl)-6,7-dihydro-1H-imidazo[4,5-c]pyridin-5(4H)-yl)(6-(dimethylamino)pyrazolo[1,5-a]pyridin-3-yl)methanone], 1 to 5 µM. Under `CN(C)CCc1ccc2c(C(=O)N3CCc4[nH]cnc4[C@H]3c3cc4c(C(F)(F)F)cccn4n3)cnn2c1` [Example 2476, (S)-(6-(2-(dimethylamino)ethyl)pyrazolo[1,5-a]pyridin-3-yl)(4-(4-(trifluoromethyl)pyrazolo[1,5-a]pyridin-2-yl)-6,7-dihydro-1H-imidazo[4,5-c]pyridin-5(4H)-yl)methanone] stands 1 to 5 µM. For `COCCc1ccc2c(C(=O)N3CCc4[nH]cnc4[C@H]3c3cc4c(C)cccn4n3)cnn2c1` [Example 2478, (S)-(6-(2-methoxyethyl)pyrazolo[1,5-a]pyridin-3-yl)(4-(4-methylpyrazolo[1,5-a]pyridin-2-yl)-6,7-dihydro-1H-imidazo[4,5-c]pyridin-5(4H)-yl)methanone], the AC50 lay within 1 to 5 µM.
